Results on one compound are retold here after patent US20250302846A1, “ANTIBIOTIC COMPOSITION AND METHODS OF USE THEREOF” (THE REGENTS OF THE UNIVERSITY OF COLORADO A BODY CORPORATE, priority 2022, published 2025).

“And” between values parts separate entries of the source, which are not always exact repeats. Identical values can stand only once. Like-named read-outs stand apart in the source and are kept apart here. A value given as a limit tells only on which side of the number the result lay.

Common to all, as to assay type: cell-based
The subject of one test is S. Typhimurium ΔacrAB. The experiment in a line: Minimum inhibitory concentration determination in broth. The settings on record: for MIC50: Salmonella enterica, TYPHIMURIUM
The procedure:
(§1) Bacterial Strains: S. Typhimurium (SL1344), S. Typhimurium (14028s, ATCC), S. Typhimurium ΔacrAB (ALR1257), E. coli (K-12 derivative BW25113 (wild-type)), E. coli K-12 AtolC (JP313 delta tolC; also called AD3644 and JLD1285).
(§2) Minimum inhibitory concentration determination: Overnight LB-grown cultures were diluted in LB or MHB to an optical density (OD600) of 0.01 and distributed into polystyrene 96-well flat-bottom plates (Greiner, 655185). […] The final DMSO concentration was at or below 2%. Where indicated, PMB [0.5 μg/mL] was added prior to D66. Plates were grown at 37° C. with shaking and OD600 was monitored (BioTek Synergy H1 or BioTek Eon). MICs were defined as the concentration at which 95% of growth was inhibited (OD600).

A further test relates to E. coli (K-12). The test is described as above. The following applies: for MIC50: Escherichia coli. The procedure:
as §1, §2

In a further test the test system is E. coli K-12 ΔtolC. Described as above. The settings on record: for MIC50: Escherichia coli. The procedure:
as §1, §2

Test [1] relates to S. Typhimurium (SL1344 with sifB::gfp) in RAW 264.7 macrophages. The test is described as follows: SAFIRE assay: bacterial accumulation (GFP) in macrophages. The following applies: Salmonella enterica, RAW264.7, 16 h, read-out: IC50 in SAFIRE. The procedure: FIG. 1A-D. D66 is a small molecule that prevents S. Typhimurium replication and/or survival in macrophages. A). Structure of D66. B) RAW264.7 macrophage-like cells were infected with S. Typhimurium harboring a chromosomal sifB: : gfp reporter, treated with DMSO or D66 at two hours after infection, and monitored for bacterial accumulation (GFP+Macrophage Area) over 16 hours using the SAFIRE (Screen for Anti-infectives using Fluorescence microscopy of Intracellular Enterobacteriaceae) assay. The IC50 value is indicated. Mean and SD of biological duplicates with technical duplicates across 9 dilutions of D66. C, D) CFU assays were performed with RAW264.7 or HeLa cells infected with S. Typhimurium SL1344 or 14028 for two hours and treated for 16 hours with DMSO or 1.5-fold dilutions of D66, prior to lysis and plating for CFU. Symbols on the Y-axes are the CFU value from DMSO-treated samples. […]
SAFIRE and CFU assays: SAFIRE assays were performed with RAW 264.7 (TIB-71) macrophages seeded at […] in 100 μL of complete DMEM in 96-well tissue culture plates (Greiner, 655180) and incubated at 37° C. with 5% CO2. […] After 16 hours of treatment, samples were imaged on a spinning disk confocal microscope, and a MATLAB algorithm calculated bacterial accumulation (GFP fluorescence) within macrophages, as defined by DAPI (DNA) and MitoTracker Red, a vital dye for mitochondrial voltage. […]

The subject of a further test is staphylococcal biofilm. The experiment in a line: Staphylococcal biofilm formation. The following applies: 18 hours in TSB, subinhibitory concentrations. The method, then: Biofilm formation was monitored after 18 hours in TSB with subinhibitory concentrations of DMSO, rifampin (1x MIC95=0.05 μg/mL), vancomycin (1x MIC95=1 μg/mL), or D66 (1x MIC95=130 μM). A-D) Crystal violet staining for accumulated biofilm mass measured at A595. Mean and
SEM of three biological replicates performed with technical triplicates. E-F). Biofilms were stained with Syto 9 (live cells) and PI (damaged/dead cells) and imaged with confocal fluorescent microscopy. Volume of live, dead, and total cell volume was calculated (positive volume=positive voxel; 1 voxel=0.0367 μm3). Asterisks indicate P≤0.05 as determined by one-way ANOVA compared to DMSO. Mean and SDs derived from a minimum of four fields of view each from two biological replicates.

Test [2] deals with one-day-old staphylococcal biofilms. The test is described as follows: One-day-old staphylococcal biofilms. The following applies: biofilms established 24 hours in TSB, treated 18 hours. The procedure: For the indicated strain, biofilms established in TSB for 24 hours were treated for 18 hours with DMSO, rifampin (1x MIC95=0.05 μg/mL), vancomycin (1x MIC95=1 μg/mL), or D66. The remaining biofilm (A-D) matrix was quantified with crystal violet or E-F) volume was quantified after Syto9 and PI staining as in FIG. 5. G, H) Syto9 and PI-stained Z-stacked images were converted to volumes. Volume data were compiled and reconstructed in Nikon Elements Advanced Research software using a color-coded volume display where blue is the bottom, lowest Z-stack and magenta is the highest point for each sample. Scale bar is in um.
Asterisks indicate P≤0.05 as determined by one-way ANOVA compared to DMSO. A-D are means and SEMs from three biological replicates performed in triplicate. E-F are means and SDs of one of two replicates derived from a minimum of four fields of view. G-H are representative images from this same replicate as in E-F.

What is called MIC50 is the lowest concentration that inhibits either 50% of growth or 50% of the strains tested, depending on the study. By IC50 is commonly meant the point on the concentration scale where inhibition reaches its midpoint. For `O=C(Nc1cc(Cl)cc(Cl)c1)N1CCCN(Cc2ccccc2)CC1` [D66], the “cMIC95 in LB” value with S. Typhimurium ΔacrAB (S. Typhimurium ΔacrAB, LB) is 142 µM; with E. coli (K-12) (LB) it was >150 µM; in the test with E. coli K-12 ΔtolC (E. coli K-12 ΔtolC, LB) it was 52 µM. The “cMIC95 in MHB” value is 116 µM in the test with S. Typhimurium ΔacrAB (S. Typhimurium ΔacrAB, MHB); >150 µM with E. coli (K-12) (MHB); 43 µM in the test with E. coli K-12 ΔtolC (E. coli K-12 ΔtolC, MHB). For the same compound, the MIC50 with S. Typhimurium ΔacrAB (read-out: MIC50 in LB) is 128 µM and 48 µg/mL; in the test on S. Typhimurium ΔacrAB (read-out: MIC50 in MHB), 81 ± 6 µM; in the test on E. coli (K-12) (LB, read-out: MIC50 in LB), > 150 µM and > 57 µg/mL; in the test with E. coli (K-12) (MHB, read-out: MIC50 in MHB), > 150 µM; with E. coli K-12 ΔtolC (read-out: MIC50 in LB) it was 47 µM and 18 µg/mL; in the test with E. coli K-12 ΔtolC (read-out: MIC50 in MHB), 36 ± 1 µM. Besides, the IC50 in test [1] is 6 ± 0.5 µM. Further, in the test on staphylococcal biofilm, the staphylococcal biofilm formation result is on record as “inhibits staphylococcal biofilm formation”. In test [2], the “number of live cells in one-day-old biofilms” value is recorded as “decreases the number of live cells”.
